Data reported in patent publication US6030961A, “Oxyalkylene phosphate compounds and uses thereof” (Bar-Ilan Research & Development Co., Ltd., priority 1997, dated 2000).
Entries after “also recorded” stand apart in the source; their conditions may differ. Like-named read-outs stand apart in the source and are kept apart here.

Experiments:
SMS-KCN [1] = experiment: cells; details: Homo sapiens
Method: (§1) The cell lines listed in Table 2 were grown to 70-80% confluence in complete medium (RPMI 1640 containing 10% fetal calf serum (FCS), 100 IU penicillin, 100 μg/mL streptomycin and 2 mM L-glutamine). Cells were harvested, washed in complete medium and counted. Cell viability was determined by trypan blue exclusion. The cells were placed into soft agar (0.12% in media) and plated at 5,000 viable cells per well onto an agarose underlayer (0.4%) in 24-well plates. After overnight culture, AB or BODP was added at the indicated concentration. Control cells received media alone. As a control for cell death, cells were treated with a superlethal dose of 10 μg/ml of cisplatin. The dosage of AB or BODP which inhibited fifty percent or ninety percent of cell proliferation (IC50 or IC90 respectively) was calculated using the Chou Analysis' Median Effective Dose equation.
(§2) Clonogenicity is determined as the percentage of clones in treated cultures relative to clones in mediumun-treated control cultures.

NGP = experiment: Clonogenicity (soft agar) of established tumor cell lines, NGP
Method: as §1, §2

[2] = system: pancreatic cell line, BxPC-3; experiment: Colony-forming assay, 24 hour exposure; type: cell-based, human; details: 24 hour treatment
Method: The effect of 24 hour exposure to BODP or AB was determined by a colony-forming assay on the pancreatic cell line, BxPC-3, which is a primary adenocarcinoma (ACTTnr:CRL-1687). Freshly trypsinized cells were plated at 500 cells/dish in 60 mm^2 tissue culture dishes with the indicated concentration of each compound and incubated for 24 hours at 37° C. in 5% CO2 /air atmosphere. The cultures were washed with PBS, fresh medium was added, and the cultures were incubated for 7-12 days to allow the formation of colonies. Colonies were fixed with methanol, stained with Giemsa and counted. All incubations were performed in triplicate.

human tumor cell lines = experiment: Clonogenicity of established tumor cell lines, summary over cell lines
Method: as §1, §2

K562 cells [3] = experiment: Hb-containing K562 cells by benzidine staining; type: cell-based; details: for extent of differentiation, dose dependence: hemoglobin accumulation, K562
[4] = system: β-thalassemia and sickle-cell anemia patients; details: cited from earlier work
[5] = U.S. Pat. No. 5,200,553; Nudelman et al.; cited from earlier work
cancer patients = details: cited from earlier work
B16 melanoma = details: cited from earlier work
nuclear deacetylase(s) = details: cited from earlier work
[6] = cited from earlier work
[7] = system: HL-60 promyelocytic leukemia; details: cited from earlier work
neoplastic cells = details: in vitro; cited from earlier work
[8] = system: expression of transfected DNA; details: cited from earlier work
NBAS-5 = experiment: Clonogenicity (soft agar) of established tumor cell lines, NBAS-5
Method: as §1, §2

SK-N-MC = experiment: Clonogenicity (soft agar) of established tumor cell lines, SK-N-MC
Method: as §1, §2

SMS-KCN [9] = system: SMS-KCN
Method: as §1, §2

SK-N-SH = experiment: Clonogenicity (soft agar) of established tumor cell lines, SK-N-SH
Method: as §1, §2

LA1-5S = experiment: Clonogenicity (soft agar) of established tumor cell lines, LA1-5S
Method: as §1, §2

NBL-W-N = experiment: Clonogenicity (soft agar) of established tumor cell lines, NBL-W-N
Method: as §1, §2

K562 cells [10] = experiment: Total Hb content of K562 cultures by HPLC; type: cell-based; details: molar basis vs AB; FIG. 5
Method: (2) Quantitative measurement of fetal hemoglobin (HbF) in K562 culture or human erythroid cultures was determined by ion-exchange high pressure liquid chromatography (HPLC) as described by Fibach et al., Blood 81:1630-1635, 1993.
K562 cells: K562 is an erythroblast cell line (obtained from the ATCC, Rockville, Md.) that develops some properties of erythroid, megakaryocyte or monocyte cells, depending on the specific stimulus, when induced by different chemicals. K562 cells were grown in RPMI medium with 10% FCS, supplemented with 2 mM glutamine. Cells were incubated at 37° C. in a humidified, 5% CO2 incubator.

IMR-32 = experiment: Clonogenicity (soft agar) of established tumor cell lines, IMR-32
Method: as §1, §2

SMS-KAN = experiment: Clonogenicity (soft agar) of established tumor cell lines, SMS-KAN
Method: as §1, §2

[11] = system: human colon carcinoma, leukemia and retinoblastoma cell lines; details: in vitro; cited from earlier work
[12] = system: reporter gene in primary and immortalized cell lines; details: cited from earlier work

Method for HL-60 cells: The level of CD11b was measured on HL-60 cells by flow cytometry using a monoclonal antibody (MAb) against CD11b in a standard indirect immunofluorescence assay. Cells were cultured for three or six days with the indicated concentration of BODP. Cultured cells were collected by centrifugation, resuspended at 10^6 cells per 20 μl RPMI+10% FCS and incubated with MAb for 30 minutes at 4° C. The cells were washed twice in cold PBS+10% FCS and incubated with a 1:20 dilution of FITC-conjugated F(ab')^2 fragment of rabbit anti-mouse IgG for 20-30 minutes at 4° C. in the dark. After washing the cells twice in cold PBS+10% FCS, flow cytometry was performed on a FACSstar (Becton Dickson) using an argon ion laser adjusted to excitation wavelength of 488 nm on samples containing 10^4 cells.

Compound CCCC(=O)O [AB, arginine butyrate, reference compound] has an IC50 (SMS-KCN [1]) of 1870 µM, an IC50 (NGP; Homo sapiens) of 197 µM and an IC90 (NGP; Homo sapiens) of 1620 µM. The “growth inhibition at 100 μM” value ([2]; 100 μM) was “did not cause complete growth inhibition”, the “inhibition of cell proliferation, dose dependence” value (human tumor cell lines) was “inhibit cell proliferation in a dose-dependent manner” and the “extent of differentiation, dose dependence” value (K562 cells [3]) was “directly related to the drug dose”. The clinical efficacy ([4]; clinical trials) was “moderate efficacy”, the side effects ([4]; β-thalassemia and sickle-cell anemia patients) was “hypokalemia, headache, nausea and vomiting” and the “increase in CD11b at the same concentration” value (HL-60 cells; 40 μM) was “no increase in CD11b”. For the same compound, the “expression of CD11b” value (HL-60 cells; 800 μM) was 12%.
In the case of CCCC(=O)OCOC(=O)C(C)(C)C [AN-9, pivaloyloxymethyl butyrate], the “activity among butyric acid prodrugs” value [5] is listed as “most active”.
In the case of CCCC(=O)O [BA, Butyric acid], the “clinical efficacy in cancer patients” value (cancer patients; BA and BA salts) is listed as “minimal or transient efficacy”, the odor in patients (cancer patients; patients receiving BA) is listed as “unpleasant odor” and the “expression of c-myc and H-ras oncogenes” value (B16 melanoma) is listed as “decrease in the expression of c-myc and H-ras oncogenes”. For the same compound, the “effect on nuclear deacetylase(s) and histone acetylation” value (nuclear deacetylase(s)) was “inhibition of nuclear deacetylase(s), resulting in hyperacetylation of histones H3 and H4”, the half-life in vivo [6] was “very short half-lives in vivo” and the metabolism ([6]; in vivo) was “metabolized rapidly”. The expression of c-myc [7] was “decrease”, the “differentiating and antiproliferative activity” value (neoplastic cells) was “potent differentiating and antiproliferative agent” and the “expression of transfected DNA” value [8] was “increase the expression of transfected DNA”.
In the case of CCCC(=O)OCOP(=O)(OCC)OCC [BODP, butyroyloxymethyl diethyl phosphate], the IC50 (NBAS-5) is reported as 21 µM, the IC90 (NBAS-5) is reported as 71 µM and the “Ratio AB/BODP IC50” value (NBAS-5) is reported as 42. The “Ratio AB/BODP IC90” value (NBAS-5) was 183.5, the IC50 (SK-N-MC) was 37 µM and the IC90 (SK-N-MC) was 145 µM. The “Ratio AB/BODP IC50” value (SK-N-MC) was 5.8, the “Ratio AB/BODP IC90” value (SK-N-MC) was 9.1 and the IC50 (SMS-KCN [9]) was 54 µM. For the same compound, the “Ratio AB/BODP IC50” value (SMS-KCN [9]) was 34.7, the IC50 (SK-N-SH) was 15 µM and the IC90 (SK-N-SH) was 44 µM. For the same compound, the “Ratio AB/BODP IC50” value (SK-N-SH) was 66.5, the “Ratio AB/BODP IC90” value (SK-N-SH) was 77.2 and the IC50 (NGP) was 17 µM. The IC90 (NGP) was 49 µM, the “Ratio AB/BODP IC50” value (NGP) was 11.6 and the “Ratio AB/BODP IC90” value (NGP) was 33.1. The “concentration causing complete inhibition” value [2] was “above 50 μM”, the “growth inhibition, dose dependence” value [2] was “dose-ependent growth inhibition” and the “inhibition of cell proliferation, dose dependence” value (human tumor cell lines) was “inhibit cell proliferation in a dose-dependent manner”. For the same compound, the “growth inhibition / clonogenicity inhibition potency, in words” value (human tumor cell lines; BODP vs AB) was “more potent growth inhibitor than AB; also recorded: significantly more potent tumor cell clonogenicity inhibitor than AB”, the “sensitivity of the cells to BODP compared with AB” value (human tumor cell lines; BODP vs AB) was “at least an order of magnitude more sensitive” and the “ratio of IC50 AB:IC50 BODP, median value” (human tumor cell lines; median over cell lines) was 25.2. The “ratio of IC90 AB:IC90 BODP, median value” (human tumor cell lines; median over cell lines) was 28.75, the “extent of differentiation, dose dependence” value (K562 cells [3]) was “directly related to the drug dose” and the “proportion of Hb-containing cells per total cell population” value (K562 cells [3]; molar basis vs AB, 5 days exposure, FIG. 4) was “higher proportion of Hb-containing cells”. For the same compound, the IC50 (LA1-5S) was 38 µM, the IC90 (LA1-5S) was 105 µM and the “Ratio AB/BODP IC50” value (LA1-5S) was 42.8. For the same compound, the “Ratio AB/BODP IC90” value (LA1-5S) was 25.5, the IC50 (NBL-W-N) was 38 µM and the IC90 (NBL-W-N) was 96 µM. For the same compound, the “Ratio AB/BODP IC50” value (NBL-W-N) was 12.9, the “Ratio AB/BODP IC90” value (NBL-W-N) was 32 and the “total Hb content of the cultures” value (K562 cells [10]) was “higher activity in inducing erythroid differentiation”. For the same compound, the “increase of CD11b expression over untreated cells” value (HL-60 cells; 40 μM, four days, 5760 min) was 7 fold, the “differentiation induction, in words” value (HL-60 cells; BODP vs AB) was “more active differentiation inducer compared to AB” and the IC50 (IMR-32) was 35 µM. The IC90 (IMR-32) was 88 µM, the “Ratio AB/BODP IC50” value (IMR-32) was 25.2 and the “Ratio AB/BODP IC90” value (IMR-32) was 40.5. The IC50 (SMS-KAN) was 45 µM, the IC90 (SMS-KAN) was 128 µM and the “Ratio AB/BODP IC50” value (SMS-KAN) was 25.3. The “Ratio AB/BODP IC90” value (SMS-KAN) was 16.2.
For CCCC(=O)[O-].[Na+] [SB, sodium butyrate], the apoptosis [11] is listed as “produce apoptosis in vitro”.
For CCCC(=O)OCC(COC(=O)CCC)OC(=O)CCC [Tributyrin], the “expression of a reporter gene” value [12] is given as “enhance the expression of a reporter gene”.
